According to patent US20260274895A1, “DE NOVO DESIGNED MEMBRANE-TRAVERSING AND ORALLY BIOAVAILABLE MACROCYCLES” (UNIVERSITY OF WASHINGTON, priority 2022, published 2026):
Read-outs that look alike come from different tables or passages of the source. Where a SMILES comes first, the peptide text is derived from it. [ ]: non-standard residue; d: D form. dNMeI = CC[C@@H](C)[C@@H](NC)C(=O)O; NMeF = CN[C@@H](Cc1ccccc1)C(=O)O; NMeL = CN[C@@H](CC(C)C)C(=O)O; dNMeL = CN[C@H](CC(C)C)C(=O)O; dNMeV = CN[C@@H](C(=O)O)C(C)C; NMeV = CN[C@H](C(=O)O)C(C)C; dNMeA = CN[C@H](C)C(=O)O; Sar = CNCC(=O)O

Legend:
[1] = Plasma exposure, oral bioavailability and tolerability after single-dose IV, SQ and PO administration; conditions: in vivo
[2] = PAMPA, PAMPA_Papp_Avg (apparent permeability)
[3] = PAMPA
[4] = Parallel artificial membrane permeability assay (PAMPA); conditions: average of three replicates; 16-20 hours incubation, 5% DMSO PBS

Structure (SMILES) | Papp [2] [×10⁻⁶ cm/s] | also measured
CC[C@@H](C)[C@H]1NC(=O)[C@@H]2CCCN2C(=O)[C@@H]([C@H](C)CC)NC(=O)CN(C)C(=O)[C@H](CC(C)C)NC(=O)[C@@H](Cc2ccccc2)NC(=O)[C@H](CC(C)C)N(C)C(=O)[C@H]2CCCN2C(=O)[C@@H](CC(C)C)NC(=O)[C@H](CC(C)C)NC(=O)[C@H]2CCCN2C1=O [Design D11.2] (cyclo(L[Sar][dI]P[dI][dP]L[dL][dP][NMeL][dF])) |  | bioavailability [1]: 7.5 to 11%
CC(C)C[C@@H]1C(=O)N[C@H](CC(C)C)C(=O)N2CCC[C@@H]2C(=O)N2CCC[C@H]2C(=O)N(C)[C@H](CC(C)C)C(=O)N[C@H](CC(C)C)C(=O)N2CCC[C@@H]2C(=O)N2CCC[C@H]2C(=O)N1C [Design D8.4, pP*llpP*ll] (cyclo([dNMeL][dL][dP]P[dNMeL][dL][dP]P)) | 0.0358 | PAMPA_Papp_Avg (apparent permeability) [3]: 0.136 ×10⁻⁶ cm/s
CC[C@@H](C)[C@H]1NC(=O)[C@@H](CC(C)C)N(C)C(=O)[C@@H]2CCCN2C(=O)[C@H](C(C)C)NC(=O)[C@@H](C)N(C)C(=O)[C@@H]2CCCN2C(=O)[C@@H](CC(C)C)NC(=O)[C@@H](C(C)C)N(C)C(=O)[C@@H]2CCCN2C(=O)[C@H](C)NC(=O)[C@H](C(C)C)NC(=O)[C@@H]2CCCN2C1=O [SEQ ID NO 117, VP*liPVAP*vlP*a] (cyclo(AP[dNMeV][dL]P[dNMeA]VP[dNMeL][dI]PV)) |  | PAMPA_Papp_Avg (apparent permeability) [4]: 0.1 ×10⁻⁶ cm/s
CC(C)C[C@@H]1NC(=O)[C@H](CC(C)C)N(C)C(=O)[C@H]2CCCN2C(=O)[C@H]2CCCN2C(=O)[C@H](CC(C)C)NC(=O)[C@@H](CC(C)C)N(C)C(=O)[C@@H](C)NC(=O)[C@@H](CC(C)C)N(C)C(=O)[C@H]2CCCN2C(=O)[C@@H](CC(C)C)NC(=O)[C@@H](C)N(C)C1=O [Design D11.15, Lpp*LL*alp*la*l] (cyclo(L[dNMeA][dL][dP][dNMeL][dA][dNMeL]L[dP][dP][NMeL])) |  | PAMPA_Papp_Avg (apparent permeability) [4]: 1.29 ×10⁻⁶ cm/s
CC(C)C[C@@H]1C(=O)N[C@H](CC(C)C)C(=O)N2CCC[C@@H]2C(=O)N2CCC[C@@H]2C(=O)N(C)[C@@H](CC(C)C)C(=O)N[C@H](CC(C)C)C(=O)N2CCC[C@@H]2C(=O)N2CCC[C@H]2C(=O)N1C [Design D8.32, pp*LlpP*ll] (cyclo([dNMeL][dL][dP][dP][NMeL][dL][dP]P)) | 5.23 | 
CC[C@H](C)[C@@H]1NC(=O)[C@@H](C)NC(=O)[C@@H]2CCCN2C(=O)[C@H]2CCCN2C(=O)[C@@H]2CCCN2C(=O)[C@@H](C)NC(=O)[C@@H](Cc2ccccc2)NC(=O)[C@@H](CC(C)C)N(C)C(=O)[C@@H](CC(C)C)N(C)C1=O [Design D9.15, PpPaI*l*lfa] (cyclo([dA]I[dNMeL][dNMeL][dF][dA]P[dP]P)) | 0.341 | 
CC(C)C[C@@H]1NC(=O)[C@H](Cc2ccccc2)NC(=O)[C@@H](CC(C)C)NC(=O)[C@H]2CCCN2C(=O)[C@H](C(C)C)NC(=O)[C@@H](CC(C)C)NC(=O)[C@H]2CCCN2C(=O)[C@@H]2CCCN2C1=O [Design D8.5, FLPplVpl] (cyclo(FLP[dP][dL]V[dP][dL])) | 6.31 | 

Further lines, with some results ahead:

Papp [2] [×10⁻⁶ cm/s] | Structure (SMILES) | also measured
0.993 | CC(C)C[C@@H]1NC(=O)[C@@H](C)NC(=O)[C@H]2CCCN2C(=O)[C@@H]2CCCN2C(=O)[C@@H](C(C)C)NC(=O)[C@@H](CC(C)C)N(C)C(=O)[C@H]2CCCN2C(=O)[C@H]2CCCN2C(=O)[C@@H](C)N(C)C(=O)[C@H](CC(C)C)N(C)C(=O)[C@@H](Cc2ccccc2)NC1=O [Design D11.16, Lf*L*app*lvPpa] (cyclo(L[dF][NMeL][dNMeA][dP][dP][dNMeL][dV]P[dP][dA])) | 
0.34 | CSCC[C@@H]1NC(=O)[C@H](CC(C)C)NC(=O)[C@@H]2CCCN2C(=O)[C@H]2CCCN2C(=O)[C@@H](C)NC(=O)[C@H]2CCCN2C(=O)[C@@H](CC(C)C)NC(=O)[C@@H](C)N(C)C(=O)[C@H](CC(C)C)N(C)C(=O)[C@@H](C)N(C)C1=O [Design D10.40, M*a*L*alpapPL] (cyclo(LM[dNMeA][NMeL][dNMeA][dL][dP][dA][dP]P)) | 
1.02 | CC[C@@H](C)[C@H]1NC(=O)[C@H](Cc2ccccc2)NC(=O)[C@@H](C)NC(=O)[C@@H](CC(C)C)N(C)C(=O)[C@@H]2CCCN2C(=O)[C@H](C)NC(=O)[C@H]2CCCN2C(=O)[C@@H]2CCCN2C(=O)[C@@H](Cc2ccccc2)NC1=O [Design D9.41, PpAP*laFif] (cyclo(AP[dNMeL][dA]F[dI][dF]P[dP])) | 
1.84 | CC[C@@H](C)[C@H]1NC(=O)[C@H]([C@@H](C)CC)NC(=O)[C@H](Cc2ccccc2)N(C)C(=O)[C@H]2CCCN2C(=O)[C@@H]([C@H](C)CC)NC(=O)[C@@H]([C@H](C)CC)N(C)C(=O)[C@H](CC(C)C)NC(=O)[C@H]2CCCN2C(=O)[C@@H]2CCCN2C(=O)[C@H](C(C)C)NC(=O)[C@H]2CCCN2C1=O [Design D11.4, VPpL*iip*FIip] (cyclo(I[dI][dP]VP[dP]L[dNMeI][dI][dP][NMeF])) | 
1.57 | CSCC[C@@H]1NC(=O)[C@@H](C)N(C)C(=O)[C@@H]2CCCN2C(=O)[C@@H](CC(C)C)NC(=O)[C@H](CC(C)C)N(C)C(=O)[C@H]2CCCN2C(=O)[C@H](CC(C)C)NC(=O)[C@@H](CC(C)C)NC(=O)[C@@H](C)NC1=O [Design D9.28, lLp*LlP*aMa] (cyclo(L[dP][NMeL][dL]P[dNMeA]M[dA][dL])) | 
1.7 | CC[C@@H](C)[C@H]1NC(=O)[C@H](C)NC(=O)[C@@H](CC(C)C)N(C)C(=O)[C@H](CC(C)C)N(C)C(=O)[C@H](C(C)C)NC(=O)[C@@H]2CCCN2C(=O)[C@@H](CC(C)C)N(C)C(=O)[C@@H](C)N(C)C(=O)[C@@H](Cc2ccccc2)NC(=O)[C@@H]2CCCN2C(=O)[C@H]2CCCN2C1=O [Design D11.6, V*L*lAipPf*a*lP] (cyclo([dF][dNMeA][dNMeL]PV[NMeL][dNMeL]A[dI][dP]P)) | 
0.206 | CC[C@H](C)[C@@H]1NC(=O)[C@@H]2CCCN2C(=O)[C@H]2CCCN2C(=O)[C@@H](Cc2ccccc2)NC(=O)[C@@H](CC(C)C)N(C)C(=O)[C@H](C(C)C)NC(=O)[C@@H](CC(C)C)NC(=O)[C@@H]2CCCN2C(=O)[C@H]2CCCN2C(=O)[C@@H](C)N(C)C(=O)[C@H](C(C)C)N(C)C1=O [Design D11.21, PI*V*apPlV*lfp] (cyclo(I[NMeV][dNMeA][dP]P[dL]V[dNMeL][dF][dP]P)) | 
